Test results published in ChEMBL document CHEMBL1132634, “Bound structures of novel P3-P1' beta-strand mimetic inhibitors of thrombin” (J Med Chem, 1999).

Assays:
Prothrombin [1] = biological target: T1, Prothrombin (Homo sapiens, UniProt P00734)
Description: Binding rate constant towards thrombin was determined

Prothrombin [2] = biological target: T1, Prothrombin; assay: Binding affinity towards thrombin was determined

Ki (Prothrombin [2]) [nM]	Structure (SMILES)	k on (Prothrombin [1]) [M⁻¹ s⁻¹]
	NCCCC[C@H](NC(=O)[C@@H]1CCN2CC[C@@](N)(Cc3ccccc3)C(=O)N12)C(=O)C(=O)NC1CCCCC1	1e+06
	N=C(N)NCCC[C@H](NC(=O)[C@@H]1CCN2CC[C@@](N)(Cc3ccccc3)C(=O)N12)C(=O)C(=O)NCCc1ccccc1	640000
0.65	N=C(N)NCCC[C@H](NC(=O)[C@@H]1CC[C@@H]2CC[C@@](N)(Cc3ccccc3)C(=O)N21)C(=O)c1nc2ccccc2s1	
